Results: PubChem BioAssay AID328 (DTP/NCI, 2004)
Several values for one entry are separate records, joined by “and”; a condition that tells them apart may be missing. Identical values can stand only once. Inconclusive results and toxic doses are left out. Rule for the calls: active = survival T/C of 150% or more; inactive = T/C below 125% in these data.

System: BDF1 mice, P388 leukemia ip, median survival T/C
Test: NCI In Vivo Anticancer Drug Screen. Data for tumor model P388 Leukemia (intraperitoneal) in B6D2F1 (BDF1) mice
Settings: endpoint: median survival time, higher = longer survival
In short: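 Compound-treated tumour-bearing mice were compared with vehicle-treated controls. Survival was recorded, and the value is the treated-group measurement divided by the control-group measurement (T/C).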

[1] = dose: 100.0 mg/kg/injection, schedule: Q04DX003 (ip), vehicle: Klucel (hydroxypropylcellulose) (HPC)
[2] = dose: 200.0 mg/kg/injection, schedule: Q04DX003 (ip), vehicle: Klucel (hydroxypropylcellulose) (HPC)
[3] = dose: 400.0 mg/kg/injection, schedule: Q04DX003 (ip), vehicle: Klucel (hydroxypropylcellulose) (HPC)
[4] = dose: 100.0 mg/kg/injection, schedule: Q01DX009 (ip), vehicle: Klucel (hydroxypropylcellulose) (HPC)
[5] = dose: 200.0 mg/kg/injection, schedule: Q01DX009 (ip), vehicle: Klucel (hydroxypropylcellulose) (HPC)
[6] = dose: 400.0 mg/kg/injection, schedule: Q01DX009 (ip), vehicle: Klucel (hydroxypropylcellulose) (HPC)
[7] = dose: 50.0 mg/kg/injection, schedule: Q01DX009 (ip), vehicle: Klucel (hydroxypropylcellulose) (HPC)
[8] = dose: 50.0 mg/kg/injection, schedule: Q04DX003 (ip), vehicle: Klucel (hydroxypropylcellulose) (HPC)
[9] = dose: 100.0 mg/kg/injection, schedule: Q01DX009 (ip), vehicle: saline

Measured: T/C

CC(=O)O[C@H]1CC[C@@]2(C)C(=CC[C@H]3[C@@H]4CC[C@H](O)[C@@]4(C)CC[C@@H]32)C1
inactive: [1] 104 % of control | [2] 100 % of control | [3] 90 % of control

O=C(COc1ccccc1)NCCO
inactive: [4] 100 % of control | [1] 91 % of control | [5] 100 % of control | [2] 91 % of control | [6] 100 % of control | [3] 91 % of control

COc1ccc(NC(=O)Nc2ccccc2C(F)(F)F)cc1
inactive: dose: 100.0 mg/kg/injection, schedule: Q01DX001 (ip), vehicle: saline with Tween-80 95 % of control | dose: 200.0 mg/kg/injection, schedule: Q01DX001 (ip), vehicle: saline with Tween-80 100 % of control | dose: 400.0 mg/kg/injection, schedule: Q01DX001 (ip), vehicle: saline with Tween-80 90 % of control

NNC(=O)C(O)C(O)C(=O)NN (configuration not stated)
inactive: dose: 60.0 mg/kg/injection, schedule: Q01DX009 (ip), vehicle: saline 96 % of control | dose: 120.0 mg/kg/injection, schedule: Q01DX009 (ip), vehicle: saline 93 % of control

O=C(O)c1cc(-c2ccc(Cl)cc2)nc2c(Cl)cccc12
inactive: [7] 100 % of control | [8] 91 % of control | [4] 100 % of control | [1] 86 % of control | [2] 86 % of control

c1ccc2c(c1)nnn2OC1CCCC1
inactive: dose: 50.0 mg/kg/injection, schedule: Q01DX009 (ip), vehicle: saline with Tween-80 106 % of control | dose: 100.0 mg/kg/injection, schedule: Q01DX009 (ip), vehicle: saline with Tween-80 116 % of control | dose: 200.0 mg/kg/injection, schedule: Q01DX009 (ip), vehicle: saline with Tween-80 119 % of control

O=S(=O)(O)SCCNCCCCCC1CCCCC1
inactive: dose: 0.75 mg/kg/injection, schedule: Q01DX009 (ip), vehicle: saline 100 % of control | dose: 1.5 mg/kg/injection, schedule: Q01DX009 (ip), vehicle: saline 100 % of control | dose: 3.0 mg/kg/injection, schedule: Q01DX009 (ip), vehicle: Klucel (hydroxypropylcellulose) (HPC) 100 % of control | dose: 3.0 mg/kg/injection, schedule: Q01DX009 (ip), vehicle: saline 100 % of control | dose: 6.0 mg/kg/injection, schedule: Q01DX009 (ip), vehicle: Klucel (hydroxypropylcellulose) (HPC) 115 % of control | dose: 6.0 mg/kg/injection, schedule: Q01DX009 (ip), vehicle: saline 105 % of control

C[C@@H]1C[C@H]2C(=CC1=O)CC[C@@H]1[C@@H]2CC[C@@]2(C)[C@H]1CC[C@]2(C)O
inactive: [7] 95 % of control | [8] 91 % of control | [4] 87 % of control | [1] 91 % of control and 103 % of control | [5] 108 % of control | [2] 96 % of control and 100 % of control

NCC1OC(OC2C(CO)OC(OC3C(O)C(N)CC(N)C3OC3OC(CO)C(O)C(O)C3N)C2O)C(N)C(O)C1O (configuration not stated)
inactive: [9] 104 % of control | dose: 200.0 mg/kg/injection, schedule: Q01DX009 (ip), vehicle: saline 106 % of control | dose: 400.0 mg/kg/injection, schedule: Q01DX009 (ip), vehicle: saline 97 % of control

CCOC(=O)c1cc2ccccc2n1-c1ccccc1
inactive: dose: 400.0 mg/kg/injection, schedule: Q01DX009 (ip), vehicle: saline with Tween-80 103 % of control

CC(C)CSC(C)C
inactive: dose: 25.0 mg/kg/injection, schedule: Q01DX009 (ip), vehicle: saline 110 % of control | dose: 50.0 mg/kg/injection, schedule: Q01DX009 (ip), vehicle: saline 110 % of control | [9] 110 % of control

CC1(C)C=C(C(Br)c2cccc(Cl)c2)C(=O)c2ccccc21 (configuration not stated)
inactive: [4] 105 % of control | [1] 104 % of control | [5] 120 % of control | [2] 104 % of control | [6] 100 % of control | [3] 95 % of control
